In patent US20240109864A1, “SUBSTITUTED PYRAZOLYL PIPERIDINE CARBOXYLIC ACIDS” (BAYER AKTIENGESELLSCHAFT, priority 2020, published 2024) one finds MEC and EC50 data, which are given here for eight compounds.

Molecules are shown by their SMILES. Structures can show the parent of a compound that is named as a salt.

The assay has as its target T1, recombinant guanylate cyclase reporter cell line (Rattus norvegicus, UniProt P20595).
T1 construct: expressed in transfected cells
T1 sequence (P20595 1-619): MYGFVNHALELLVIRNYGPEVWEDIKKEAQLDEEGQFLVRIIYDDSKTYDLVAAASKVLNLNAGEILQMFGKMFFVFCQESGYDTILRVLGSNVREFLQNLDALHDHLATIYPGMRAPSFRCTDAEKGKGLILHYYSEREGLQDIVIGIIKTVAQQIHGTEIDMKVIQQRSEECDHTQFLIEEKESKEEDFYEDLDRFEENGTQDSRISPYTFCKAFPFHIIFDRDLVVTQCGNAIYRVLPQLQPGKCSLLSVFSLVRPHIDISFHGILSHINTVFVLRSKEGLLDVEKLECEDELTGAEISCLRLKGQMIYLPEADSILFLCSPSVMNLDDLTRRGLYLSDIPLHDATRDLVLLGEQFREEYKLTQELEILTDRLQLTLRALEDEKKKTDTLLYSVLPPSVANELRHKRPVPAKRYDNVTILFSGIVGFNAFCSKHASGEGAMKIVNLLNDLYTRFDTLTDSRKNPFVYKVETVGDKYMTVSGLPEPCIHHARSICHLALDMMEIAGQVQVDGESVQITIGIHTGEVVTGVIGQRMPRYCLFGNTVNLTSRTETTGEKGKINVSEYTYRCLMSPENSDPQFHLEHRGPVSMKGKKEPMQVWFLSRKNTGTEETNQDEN
T1 sequence (P19686 1-690 partner): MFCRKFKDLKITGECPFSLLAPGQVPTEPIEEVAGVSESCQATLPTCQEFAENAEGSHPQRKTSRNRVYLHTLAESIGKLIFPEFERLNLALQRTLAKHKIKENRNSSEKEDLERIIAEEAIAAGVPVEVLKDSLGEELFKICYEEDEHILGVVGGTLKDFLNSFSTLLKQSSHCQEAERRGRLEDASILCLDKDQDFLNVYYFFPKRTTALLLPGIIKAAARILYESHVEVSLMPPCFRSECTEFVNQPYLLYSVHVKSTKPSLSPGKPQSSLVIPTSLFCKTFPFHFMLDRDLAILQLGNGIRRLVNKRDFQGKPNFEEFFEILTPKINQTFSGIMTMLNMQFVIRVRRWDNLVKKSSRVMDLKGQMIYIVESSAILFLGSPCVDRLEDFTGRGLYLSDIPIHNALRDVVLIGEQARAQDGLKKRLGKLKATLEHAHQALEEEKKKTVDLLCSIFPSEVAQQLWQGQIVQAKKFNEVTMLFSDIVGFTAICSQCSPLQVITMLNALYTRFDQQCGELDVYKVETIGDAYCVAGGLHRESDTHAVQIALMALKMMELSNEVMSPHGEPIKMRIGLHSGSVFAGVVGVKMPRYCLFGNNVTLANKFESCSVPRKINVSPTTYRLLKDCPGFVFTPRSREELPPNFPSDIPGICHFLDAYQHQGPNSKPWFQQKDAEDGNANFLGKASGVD
The experiment in a line: Effect on a recombinant guanylate cyclase reporter cell line. The assay is classed as cell-based. Conditions: in some cases mean values from individual determinations; for MEC: MEC = minimum effective concentration; for EC50: half maximal effective concentration. On the procedure:
The cellular activity of the compounds according to the invention was determined using a recombinant guanylate cyclase reporter cell line, as described in F. Wunder et al., Anal. Biochem. 339, 104-112 (2005).

Take `O=C(O)c1cnn(C2CCCN(c3cc(Cl)ccc3-c3ccc(N4CCN(CC5CC5)CC4)cc3F)C2)c1C(F)(F)F` (single isomer, unassigned) [Example 69, 1-[1-[5-Chloro-2-[4-[4-(cyclopropylmethyl)piperazin-1-yl]-2-fluoro-phenyl]phenyl]-3-piperidyl]-5-(trifluoromethyl)pyrazole-4-carboxylic acid hydrochloride]: the MEC came to 3.0 nM and the EC50 (in general, the midpoint of the concentration-response curve) was determined as 13.8 nM.

Consider `CCN1CCN(c2ccc(-c3ccc(Cl)cc3N3CCCC(n4ncc(C(=O)O)c4C(F)(F)F)C3)cc2F)CC1` (single isomer, unassigned) [Example 70, 1-[1-[5-Chloro-2-[4-(4-ethylpiperazin-1-yl)-3-fluoro-phenyl]phenyl]-3-piperidyl]-5-(trifluoromethyl)pyrazole-4-carboxylic acid], for which the MEC stood at 30.0 nM and the EC50 was determined as 99 nM.

Take `O=C(O)c1cnn(C2CCCN(c3cc(Cl)ccc3-c3ccc(N4CCN(CC5CC5)CC4)c(F)c3)C2)c1C(F)(F)F` (single isomer, unassigned) [Example 71, 1-[1-[5-Chloro-2-[4-[4-(cyclopropylmethyl)piperazin-1-yl]-3-fluoro-phenyl]phenyl]-3-piperidyl]-5-(trifluoromethyl)pyrazole-4-carboxylic acid hydrochloride]: the MEC amounted to 10.0 nM and the EC50 is 69.5 nM.

For `CN1CCN(c2ccc(-c3ccc(Cl)cc3N3CCCC(n4ncc(C(=O)O)c4C(F)(F)F)C3)c(Cl)c2)CC1` (single isomer, unassigned) [Example 72, 1-[1-[5-Chloro-2-[2-chloro-4-(4-methylpiperazin-1-yl)phenyl]phenyl]-3-piperidyl]-5-(trifluoromethyl)pyrazole-4-carboxylic acid formic acid adduct], the MEC worked out at 10.0 nM and the EC50 turned out to be 64.5 nM.

With `CCN1CCN(c2ccc(-c3ccc(Cl)cc3N3CCCC(n4ncc(C(=O)O)c4C(F)(F)F)C3)c(C)c2)CC1` (single isomer, unassigned) [Example 73, 1-[1-[5-Chloro-2-[4-(4-ethylpiperazin-1-yl)-2-methyl-phenyl]phenyl]-3-piperidyl]-5-(trifluoromethyl)pyrazole-4-carboxylic acid hydrochloride], the MEC was 30.0 nM and the EC50 amounted to 58 nM.

Turning to `O=C(O)c1cnn(C2CCCN(c3cc(Cl)ccc3-c3ccc(N4CCN(CC(F)(F)F)CC4)nc3)C2)c1C(F)(F)F` (single isomer, unassigned) [Example 74, 1-[1-[5-Chloro-2-[6-[4-(2,2,2-trifluoroethyl)piperazin-1-yl]-3-pyridyl]phenyl]-3-piperidyl]-5-(trifluoromethyl)pyrazole-4-carboxylic acid hydrochloride], the EC50 came out at 10.5 nM. Also, the MEC (hydrochloride) worked out at 1.0 nM.

For the compound `O=C(O)c1cnn(C2CCCN(c3cc(Cl)ccc3-c3ccc(N4CCN(CC(F)(F)F)CC4)nc3)C2)c1C(F)(F)F` (single isomer, unassigned) [Example 75, 1-[1-[5-Chloro-2-[6-[4-(2,2,2-trifluoroethyl)piperazin-1-yl]-3-pyridyl]phenyl]-3-piperidyl]-5-(trifluoromethyl)pyrazole-4-carboxylic acid], the MEC turned out to be 3.0 nM and the EC50 came to 16 nM.

Consider `O=C(O)c1cnn(C2CCCN(c3cc(Cl)ccc3-c3ccc(N4CCN(CCC(F)(F)F)CC4)nc3)C2)c1C(F)(F)F` (single isomer, unassigned) [Example 76, 1-[1-[5-Chloro-2-[6-[4-(3,3,3-trifluoropropyl)piperazin-1-yl]-3-pyridyl]phenyl]-3-piperidyl]-5-(trifluoromethyl)pyrazole-4-carboxylic acid hydrochloride], for which the MEC was 1.0 nM and the EC50 stood at 4.8 nM.
